# Test results as given in US20240190880A1 (THE REGENTS OF THE UNIVERSITY OF MICHIGAN, priority 2021, published 2024).
# Target: T1, ER (Homo sapiens, UniProt P03372)
# T1 construct: host or cells: T47D and MCF7 human breast cancer cells
# T1 sequence (P03372 1-595): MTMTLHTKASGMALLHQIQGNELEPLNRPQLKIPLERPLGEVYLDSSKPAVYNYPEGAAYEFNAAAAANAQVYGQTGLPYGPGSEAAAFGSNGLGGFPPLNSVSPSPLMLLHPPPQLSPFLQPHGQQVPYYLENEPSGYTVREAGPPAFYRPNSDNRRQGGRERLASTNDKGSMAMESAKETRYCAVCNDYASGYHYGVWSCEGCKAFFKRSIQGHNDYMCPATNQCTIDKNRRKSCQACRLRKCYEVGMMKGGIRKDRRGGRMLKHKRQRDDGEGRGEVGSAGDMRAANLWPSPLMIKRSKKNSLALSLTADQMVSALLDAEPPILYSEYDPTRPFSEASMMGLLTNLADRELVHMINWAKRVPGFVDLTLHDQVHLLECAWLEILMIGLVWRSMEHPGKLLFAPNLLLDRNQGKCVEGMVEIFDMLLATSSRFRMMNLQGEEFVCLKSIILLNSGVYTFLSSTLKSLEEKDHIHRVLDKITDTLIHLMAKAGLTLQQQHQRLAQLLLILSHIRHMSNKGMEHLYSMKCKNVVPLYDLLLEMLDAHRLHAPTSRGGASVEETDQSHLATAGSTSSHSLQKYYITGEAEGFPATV
# Experiment: ER degradation activity, in-cell western blot analysis in T47D cells
# Format: cell-based
# Settings: 16 hours, Table A does not say which cell line (T47D or MCF7), read-out: Potency (DC50)
# Protocol: ER degradation activity was evaluated in the human breast cancer cell line T47D and MCF7 purchased from the American Type Culture Collection (ATCC), Manassas, VA, and maintained and cultured in Dulbecco's Modified Eagle's medium (DMEM) containing 10% fetal bovine serum, 1 unit/ml of penicillin and 1 μg/ml of streptomycin.
# The protocol for the in-cell western blot analysis: a. seed cells in black-sided/clear bottom 96- or 384-well plates at 40,000 or 10,000 cells/well, overnight; b. add diluted compounds (final 0.5% DMSO), 16 hours. […] RT 2 h, gentle shaking. Negative control: cells plus secondary antibodies (no primary antibodies); e. wash ×4 with PBS+0.05-0.1% Tween 20, gentel shaking; f. anti-rabbit-680 and anti-mouse-800 (both 1:1000 in LiCor block+0.05% Tween20, RT 1 h, gentle shaking, no light. LI-COR: 0.2% to reduce background; g. wash×4 with PBS+0.05% Tween 20, gental shaking; h. add 100 μL or 25 μL of PBS to each well and read on CLX plate reader. The relative ER percentage in treated cells were obtained by comparing the values of treated wells to those in untreated and DMSO-treated wells as 100%.
row,DC50,SMILES
1,> 100 nM,"O=C1CCC(N2C(=O)c3cc4c(cc3C2=O)CN(CC(=O)N2CCC3(CC2)CC(Oc2ccc([C@@H]5c6ccc(O)cc6CC[C@@H]5c5ccccc5)cc2)C3)C4)C(=O)N1 (stereo partly drawn) [E 220, 2-(2,6-dioxopiperidin-3-yl)-6-(2-(2-(4-((1R,2S)-6-hydroxy-2-phenyl-1,2,3,4-tetrahydronaphthalen-1-yl)phenoxy)-7-azaspiro[3.5]nonan-7-yl)-2-oxoethyl)-6,7-dihydropyrrolo[3,4-f]isoindole-1,3(2H,5H)-dione]"
2,< 10 nM,"O=C1CCC(N2Cc3cc4c(cc3C2=O)CN(CC(=O)N2CCC3(C2)CN(c2ccc([C@@H]5c6ccc(O)cc6CC[C@@H]5c5ccccc5)cc2)C3)C4)C(=O)N1 (mixture of isomers) [E 6, rac-3-(6-(2-(2-(4-((1R,2S)-6-hydroxy-2-phenyl-1,2,3,4-tetrahydronaphthalen-1-yl)phenyl)-2,6-diazaspiro[3.4]octan-6-yl)-2-oxoethyl)-1-oxo-3,5,6,7-tetrahydropyrrolo[3,4-f]isoindol-2(1H)-yl)piperidine-2,6-dione]"
3,> 100 nM,"O=C1CCC(N2C(=O)c3cc4c(cc3C2=O)CN(C2CCN(C(=O)C3CCN(c5ccc([C@@H]6c7ccc(O)cc7CC[C@@H]6c6ccccc6)cc5)CC3)CC2)C4)C(=O)N1 (stereo partly drawn) [E 240, 2-(2,6-dioxopiperidin-3-yl)-6-(1-(1-(4-((1R,2S)-6-hydroxy-2-phenyl-1,2,3,4-tetrahydronaphthalen-1-yl)phenyl)piperidine-4-carbonyl)piperidin-4-yl)-6,7-dihydropyrrolo[3,4-f]isoindole-1,3(2H,5H)-dione]"
4,10 to 100 nM,"O=C1CCC(N2C(=O)c3cc4c(cc3C2=O)CN(CC2CCN(C(=O)C3CN(c5ccc([C@@H]6c7ccc(O)cc7CC[C@@H]6c6ccccc6)cc5)C3)CC2)C4)C(=O)N1 (mixture of isomers) [E 156, Rac-2-(2,6-dioxopiperidin-3-yl)-6-((1-(1-(4-((1R,2S)-6-hydroxy-2-phenyl-1,2,3,4-tetrahydronaphthalen-1-yl)phenyl)azetidine-3-carbonyl)piperidin-4-yl)methyl)-6,7-dihydropyrrolo[3,4-f]isoindole-1,3(2H,5H)-dione]"
5,> 100 nM,"C[C@@H]1Cc2cc(O)ccc2[C@@H](c2c(F)cc(N3CCC(N4CCC(C(=O)N5Cc6cc7c(cc6C5)C(=O)N(C5CCC(=O)NC5=O)C7=O)CC4)CC3)cc2F)N1CC(C)(F)F (stereo partly drawn) [E 29, 6-(1′-(4-((1S,3R)-2-(2,2-difluoropropyl)-6-hydroxy-3-methyl-1,2,3,4-tetrahydroisoquinolin-1-yl)-3,5-difluorophenyl)-[1,4′-bipiperidine]-4-carbonyl)-2-(2,6-dioxopiperidin-3-yl)-6,7-dihydropyrrolo[3,4-f]isoindole-1,3(2H,5H)-dione]"
6,> 100 nM,"O=C1CCC(N2C(=O)c3cc4c(cc3C2=O)CN(C(=O)CN2CCC3(CC2)CCN(c2ccc([C@@H]5c6ccc(O)cc6CC[C@@H]5c5ccccc5)cc2)CC3)CC4)C(=O)N1 (mixture of isomers) [E 161, rac-2-(2,6-dioxopiperidin-3-yl)-6-(2-(9-(4-((1R,2S)-6-hydroxy-2-phenyl-1,2,3,4-tetrahydronaphthalen-1-yl)phenyl)-3,9-diazaspiro[5.5]undecan-3-yl)acetyl)-5,6,7,8-tetrahydro-1H-pyrrolo[3,4-g]isoquinoline-1,3(2H)-dione]"

# Second part, the molecule before the results:
row,SMILES,DC50
1,"C[C@@H]1Cc2c([nH]c3ccccc23)[C@@H](c2c(F)cc(N3CC(C(=O)N4CCC(N5Cc6cc7c(cc6C5)C(=O)N(C5CCC(=O)NC5=O)C7=O)CC4)C3)cc2F)N1CC(F)F (stereo partly drawn) [E 236, 6-(1-(1-(4-((1R,3R)-2-(2,2-difluoroethyl)-3-methyl-2,3,4,9-tetrahydro-1H-pyrido[3,4-b]indol-1-yl)-3,5-difluorophenyl)azetidine-3-carbonyl)piperidin-4-yl)-2-(2,6-dioxopiperidin-3-yl)-6,7-dihydropyrrolo[3,4-f]isoindole-1,3(2H,5H)-dione]",> 100 nM
2,"C[C@@H]1Cc2c([nH]c3ccccc23)[C@@H](c2c(F)cc(N3CCC4(CC3)CN(CC3Cc5cc6c(cc5C3)C(=O)N(C3CCC(=O)NC3=O)C6=O)C4)cc2F)N1CC(F)F (stereo partly drawn) [E 232, 6-((7-(4-((1R,3R)-2-(2,2-difluoroethyl)-3-methyl-2,3,4,9-tetrahydro-1H-pyrido[3,4-b]indol-1-yl)-3,5-difluorophenyl)-2,7-diazaspiro[3.5]nonan-2-yl)methyl)-2-(2,6-dioxopiperidin-3-yl)-6,7-dihydrocyclopenta[f]isoindole-1,3(2H,5H)-dione]",> 100 nM
3,"C[C@@H]1Cc2c([nH]c3ccccc23)[C@@H](c2c(F)cc(N3CC4(CCN(CC(=O)N5Cc6cc7c(cc6C5)C(=O)N(C5CCC(=O)NC5=O)C7=O)C4)C3)cc2F)N1CC(F)F (stereo partly drawn) [E 74, 6-(2-(2-(4-((1R,3R)-2-(2,2-difluoroethyl)-3-methyl-2,3,4,9-tetrahydro-1H-pyrido[3,4-b]indol-1-yl)-3,5-difluorophenyl)-2,6-diazaspiro[3.4]octan-6-yl)acetyl)-2-(2,6-dioxopiperidin-3-yl)-6,7-dihydropyrrolo[3,4-f]isoindole-1,3(2H,5H)-dione]",10 to 100 nM
4,"C[C@@H]1Cc2c([nH]c3ccccc23)[C@@H](c2c(F)cc(N3CCC(C(=O)N4CCC(N5Cc6cc7c(cc6C5)C(=O)N(C5CCC(=O)NC5=O)C7=O)CC4)CC3)cc2F)N1CC(F)(F)F (stereo partly drawn) [E 228, 6-(1-(1-(3,5-difluoro-4-((1R,3R)-3-methyl-2-(2,2,2-trifluoroethyl)-2,3,4,9-tetrahydro-1H-pyrido[3,4-b]indol-1-yl)phenyl)piperidine-4-carbonyl)piperidin-4-yl)-2-(2,6-dioxopiperidin-3-yl)-6,7-dihydropyrrolo[3,4-f]isoindole-1,3(2H,5H)-dione]",10 to 100 nM
5,"C[C@@H]1Cc2c([nH]c3ccccc23)[C@@H](c2c(F)cc(N3CCC(CN4CCC(N5Cc6cc7c(cc6C5)C(=O)N(C5CCC(=O)NC5=O)C7=O)CC4)CC3)cc2F)N1CC(F)F (stereo partly drawn) [E 51, 6-(1-((1-(4-((1R,3R)-2-(2,2-difluoroethyl)-3-methyl-2,3,4,9-tetrahydro-1H-pyrido[3,4-b]indol-1-yl)-3,5-difluorophenyl)piperidin-4-yl)methyl)piperidin-4-yl)-2-(2,6-dioxopiperidin-3-yl)-6,7-dihydropyrrolo[3,4-f]isoindole-1,3(2H,5H)-dione]",10 to 100 nM
6,C[C@@H]1Cc2c([nH]c3ccccc23)[C@@H](c2c(F)cc(N3CCC(N4CCN(C(=O)CN5Cc6cc7c(cc6C5)C(=O)N(C5CCC(=O)NC5=O)C7=O)CC4)CC3)cc2F)N1CC(F)F (some centres unmarked) [E 109],< 10 nM
7,"C[C@@H]1Cc2c([nH]c3ccccc23)[C@@H](c2c(F)cc(C3CCC(C(=O)N4CCC(N5Cc6cc7c(cc6C5)C(=O)N(C5CCC(=O)NC5=O)C7=O)CC4)CC3)cc2F)N1CC(F)F (stereo partly drawn) [E246, 6-(1-(4-(4-((1R,3R)-2-(2,2-difluoroethyl)-3-methyl-2,3,4,9-tetrahydro-1H-pyrido[3,4-b]indol-1-yl)-3,5-difluorophenyl)cyclohexane-1-carbonyl)piperidin-4-yl)-2-(2,6-dioxopiperidin-3-yl)-6,7-dihydropyrrolo[3,4-f]isoindole-1,3(2H,5H)-dione]",< 10 nM

# Same assay, conditions: compounds 16 hours, Table A does not say whether T47D or MCF7, read-out: Potency (DC50)
row,DC50,SMILES
1,> 100 nM,"O=C1CCC(N2C(=O)c3cc4c(cc3C2=O)CC2(C4)CN(CC(=O)N3CC(Oc4ccc([C@@H]5c6ccc(O)cc6CC[C@@H]5c5ccccc5)cc4)C3)C2)C(=O)N1 (stereo partly drawn) [E 503, 2′-(2,6-dioxopiperidin-3-yl)-1-(2-(3-(4-((1R,2S)-6-hydroxy-2-phenyl-1,2,3,4-tetrahydronaphthalen-1-yl)phenoxy)azetidin-1-yl)-2-oxoethyl)-5′,7′-dihydro-1′H-spiro[azetidine-3,6′-cyclopenta[f]isoindole]-1′,3′(2′H)-dione]"
